# US20030008925A1, “Treatment of drug-induced sleepiness” (priority 1997, published 2003)
# What was measured:
# Assay type in all cases: in vivo, human
# [1] = test system: patient under morphine treatment; experiment: Sleepiness evaluated on the Epworth scale in hospitalized patients under morphine treatment
# Text: the Epworth scale, while ensuring the analgesic properties of morphine and the properties of antidepressant, anxiolytic or analgesic medicaments are maintained. The patient is thus re-established in a satisfactory relational life.
# (§1) In order to illustrate the invention, but without limiting its scope, the results of observations made confidentially on patients in the context of hospitalization are reported below. The consent of the patients was obtained after the compassionate grounds of the prescription had been explained to them.
# [2] = test system: patient under morphine treatment; experiment: Pain rating on the EVA scale in patients
# Text: as §1
# [3] = Body weight (nutritional recovery) of patient; conditions: Case 1; in 10 days, under Moscontin plus Modiodal 200 mg
# Protocol: Given the progression of painful phenomena, at the end of October 1997 the patient is hospitalized. At this point in time the dosage of Moscontin® is 100 mg twice every 24 hours, their EVA score is 60, and their sleepiness evaluated on the Epworth scale is 20. The Moscontin® is increased to 160 mg twice every 24 hours. After stabilization of the analgesic level at an EVA score of 30, treatment with Modiodal®, initially in a dosage of 100 mg and then rapidly 200 mg, is initiated. This dosage allows their Epworth score to drop below 10. This quality of awakening has enabled them to resume family relationships of a better quality. The efficacy of the analgesia and their better vigilance level has enabled them to take accompanied walks. A nutritional recovery manifesting itself by a weight increase of 2 kg in 10 days is also to be noted in this patient.
# [4] = Case 2, Skenan doses doubled combined with 200 mg Modiodal
# [5] = Case 5, morphine treatment at home (oral)
compound,measurement,setting,value
"NC(=O)C[S+]([O-])C(c1ccccc1)c1ccccc1 (stereo not drawn) [Modiodal®, benzhydrylsulphinyl-acetamide]",Epworth score,"[1]; Case 1, Modiodal 100 mg then 200 mg, with Moscontin 160 mg twice every 24 hours",below 10
same,vigilance level rating (Epworth),[1]; [4],less than 10
same,state of vigilance rating (Epworth),"[1]; Case 3, Modiodal 100 mg then 200 mg, with morphine 40 mg subcutaneous",12
same,sleepiness index after modafinil,"[1]; Case 4, modafinil 300 mg achieved progressively, with Moscontin 100 mg x2",11
same,sleepiness index after modafinil,"[1]; Case 5, modafinil 200 mg per day, with morphine 40 mg subcutaneous",15
same,clinical results (in words),"[1]; about 200 to 400 mg per day, in 1 or 2 doses",very favourable results
same,effect on morphine sleepiness and that associated with clonazepam (in words),[1]; summary of pilot cases 1 to 5,efficacy
same,EVA (analgesic level),[2]; [4],20
same,weight increase,[3],2 kg
"O=C(C[S+]([O-])C(c1ccccc1)c1ccccc1)NO (stereo not drawn) [Olmifon®, benzhydrylsulphinyl-acetohydroxamic acid]",clinical results (in words),"[1]; about 1,200 to 1,800 mg per day, in 2 doses",very favourable results
CN1CC[C@]23c4c5ccc(O)c4O[C@H]2[C@@H](O)C=C[C@H]3[C@H]1C5 [morphine],state of sleepiness on the Epworth scale,"[1]; Case 3, morphine 40 mg subcutaneous, before Modiodal",20
same,sleepiness (in words),[1]; [5],severe sleepiness
same,sleepiness index before modafinil,"[1]; Case 5, under morphine, before modafinil",22
same,pain rating on the EVA scale,"[2]; Case 3, continuous subcutaneous morphine combined with oral clonazepam",30
same,EVA,[2]; [5],40
